Tested on: HBV
Assay: Photodynamic inactivation of HBV in plasma by methylene blue solution under monochromatic light; HBV DNA in lymphocytes by PCR
Type: cell-based, human
Details: for amount of HBV DNA particles in lymphocytes, computed by PCR: HBV containing plasma, 90 minutes
Experimental: Medical instruments are placed in the cuvette 5 within the aforementioned aqueous solution of methylene blue 6, and the aforementioned door closed. The medical devices in the chamber 4 are then subjected to irradiation by emitters 7 of light energy, such as monochromatic radiation with a maximum specific content of monochromatic light with a wavelength of 590 nm or 660 nm, with a total light output of not less than 280 lm. The exposure time may be set to 90 minutes, e.g., using the aforesaid timer 9. After treatment, in the device 1, the viruses remaining on the medical instruments are completely inactivated, i.e., the viruses lose their ability to infect cells of the human body. Instruments so sterilized are then reliably reused without risk of infecting patients.
Verification steps of the employment of the claimed apparatuses and methods within an installation and carried out on in a biological environment contaminated by viruses, such as blood plasma.
Monochromatic radiation emitters 7 with a range of 590±2 nm are employed. After treatment in the inventive installation method, i.e., within device 1, samples of HBV containing plasma were treated for 90 minutes in a 0.01% solution of methylene blue, and afterward the amount of lymphocytes, computed by Polymerase Chain Reaction (PCR), of HBV DNA particles was zero, i.e., they were not found.
Monochromatic radiation emitters 7 with a range of 590±2 nm are employed. After treatment in the device 1, samples of HBV containing plasma were treated for 90 minutes in a 0.02% solution of methylene blue. As above, the amount of lymphocytes, computed by PCR, of HBV DNA particles were not found.
Monochromatic radiation emitters 7 with a range of 660±2 nm were employed. After treatment in the device 1, as set forth hereinabove, samples of HBV containing plasma were treated for 90 minutes in a 0.01% solution of methylene blue.
Monochromatic radiation emitters 7 with a range of 660±2 nm were employed.

CN(C)c1ccc2nc3ccc(=[N+](C)C)cc-3sc2c1 [methylene blue]
HBV inactivation (0.01% methylene blue solution, emitter range 588-592 nm): full effect | HBV inactivation (0.01% methylene blue solution, emitter range 658-662 nm): full sterilization treatment effect was reached | HBV inactivation (0.02% methylene blue solution, emitter range 588-592 nm): full effect | HBV inactivation (0.02% methylene blue solution, emitter range 658-662 nm): full effect | amount of HBV DNA particles in lymphocytes, computed by PCR (0.01% solution of methylene blue, emitters 590±2 nm): zero | amount of HBV DNA particles in lymphocytes, computed by PCR (0.01% solution of methylene blue, emitters 660±2 nm): found no HBV DNA particles | amount of HBV DNA particles in lymphocytes, computed by PCR (0.02% solution of methylene blue, emitters 590±2 nm): not found | amount of HBV DNA particles in lymphocytes, computed by PCR (0.02% solution of methylene blue, emitters 660±2 nm): no lymphocytes, computed by PCR, of the HBV DNA particles were found

From patent publication US20200101182A1, “METHODS FOR INACTIVATING, ON MEDICAL INSTRUMENTS AND DEVICES, VIRUSES CONTAINING RNA AND DNA, AND APPARATUSES FOR IMPLEMENTATING SAME” (priority 2014, published 2020)
